In patent publication US20240166664A1, “TRIHETEROCYCLIC COMPOUND, PREPARATION METHOD THEREFOR, AND APPLICATION THEREOF” (SHANGHAI APEIRON THERAPEUTICS COMPANY LIMITED, priority 2021, published 2024):
Where two headings read alike, the source gives them in different places.

What was measured:
NCI-H1373 cells = assay: Cell proliferation inhibition assay (CTG method); assay type: cell-based, human; conditions: read-out: IC50 (nM) for NCI-H1373 cell viability
PARP7 = target: T1, PARP7 (Homo sapiens, UniProt Q7Z3E1); assay: Test of inhibitory activity against PARP7 enzyme (PARP7 FLAG-tag, Probe A, time-resolved fluorescence); assay type: biochemical; conditions: PARP7 12 nM, Probe A 2 nM, 1 hr room temperature
T1 construct: purchased BPS 80527
T1 sequence (Q7Z3E1 1-657): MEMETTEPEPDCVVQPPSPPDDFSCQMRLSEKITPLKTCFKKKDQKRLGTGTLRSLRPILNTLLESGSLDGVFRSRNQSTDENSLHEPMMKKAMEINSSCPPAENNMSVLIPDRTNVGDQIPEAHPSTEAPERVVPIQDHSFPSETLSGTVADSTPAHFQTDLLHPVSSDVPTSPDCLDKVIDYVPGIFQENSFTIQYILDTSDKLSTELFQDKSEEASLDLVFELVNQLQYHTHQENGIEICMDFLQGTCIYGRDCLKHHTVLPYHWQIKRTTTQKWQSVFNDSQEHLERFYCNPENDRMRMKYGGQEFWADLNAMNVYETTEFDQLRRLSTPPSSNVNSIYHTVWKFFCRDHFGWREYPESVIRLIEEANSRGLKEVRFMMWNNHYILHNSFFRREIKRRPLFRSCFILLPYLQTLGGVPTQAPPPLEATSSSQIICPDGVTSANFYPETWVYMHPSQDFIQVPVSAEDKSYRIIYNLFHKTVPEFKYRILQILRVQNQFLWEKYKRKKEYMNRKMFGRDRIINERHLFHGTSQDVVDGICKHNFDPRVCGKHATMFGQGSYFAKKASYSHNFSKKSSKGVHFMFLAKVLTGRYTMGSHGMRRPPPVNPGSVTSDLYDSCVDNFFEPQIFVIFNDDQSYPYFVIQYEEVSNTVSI

[1] = Homo sapiens, NCI-H1373, 144 h, NCI-H1373 cells, 6 days incubation, CTG method
[2] = NCI-H1373 cells, 6 days incubation, CTG method

Row | SMILES | IC50 (NCI-H1373 cells; [1]) [nM] | IC50 (PARP7) [nM] | IC50 (NCI-H1373 cells; [2]) [nM] | IC50 (NCI-H1373 cells; Homo sapiens, NCI-H1373, 144 h) [nM]
1 | CC(COCC(O)C(=O)N1CCN2c3ncc(C(F)(F)F)cc3COCC2C1)Nc1cn[nH]c(=O)c1C(F)(F)F (single isomer, unassigned) [Compound 55] | < 100 | < 10 | – | –
2 | CC(COCC(O)C(=O)N1CCN2c3ncc(C(F)(F)F)cc3COCC2C1)Nc1cn[nH]c(=O)c1C(F)(F)F (single isomer, unassigned) [Compound 56] | – | < 10 | 100 to 500 | –
3 | C[C@H](COCCC(=O)N1CCN2c3ncc(C(F)(F)F)cc3NCC[C@H]2C1)Nc1cn[nH]c(=O)c1C(F)(F)F (stereo in doubt) [Compound 36, 5-(((R)-1-(3-oxo-3-((S)-3-(trifluoromethyl)-6,7,7a, 8,10,11-hexahydropyrazino[1,2-d]pyrido[3,2-b][1,4]diazepine-9(5H)-yl)propoxy)prop-2-yl)amino)-4-(trifluoromethyl)pyridazin-3(2H)-one] | 500 to 5000 | < 10 | – | –
4 | C[C@@H](COCCC(=O)N1CCN2c3ncc(C(F)(F)F)cc3NC(=O)[C@H]2C1)Nc1cn[nH]c(=O)c1C(F)(F)F [Compound 7, (R)-8-(3-((S)-2-((6-oxo-5-(trifluoromethyl)-1,6-dihydropyridazin-4-yl)amino)propoxy)propionyl)-3-(trifluoromethyl)-7,8,9,10-tetrahydro-5H-pyrazino[1,2-a]pyrido[3,2-e]pyrazin-6(6aH)-one] | – | – | – | 500 to 5000
5 | C[C@@H](COCCC(=O)N1CCN2c3ncc(C(F)(F)F)cc3NC(=O)[C@@H]2C1)Nc1cn[nH]c(=O)c1C(F)(F)F [Compound 8, (S)-8-(3-((S)-2-((6-oxo-5-(trifluoromethyl)-1,6-dihydropyridazin-4-yl)amino)propoxy)propionyl)-3-(trifluoromethyl)-7,8,9,10-tetrahydro-5H-pyrazino[1,2-a]pyrido[3,2-e]pyrazin-6(6aH)-one] | – | – | – | 100 to 500
6 | C[C@@H]1CN2c3ncc(C(F)(F)F)cc3OC[C@H]2CN1C(=O)CCOC[C@H](C)Nc1cn[nH]c(=O)c1C(F)(F)F [Compound 24, 5-(((S)-1-(3-((6aR,9R)-9-methyl-3-(trifluoromethyl)-6a, 7,9,10-tetrahydropyrazino[1,2-d]pyrido[3,2-b][1,4]oxazin-8(6H)-yl)-3-oxypropoxy)prop-2-yl)amino)-4-(trifluoromethyl)pyridazin-3(2H)-one] | 100 to 500 | – | – | –
7 | C[C@@H](COCCC(=O)N1CCN2c3ncc(C(F)(F)F)cc3N(C)C(=O)[C@@H]2C1)Nc1cn[nH]c(=O)c1C(F)(F)F [Compound 33, (S)-5-methyl-8-(3-((S)-2-((6-oxo-5-(trifluoromethyl)-1,6-dihydropyridazin-4-yl)amino)propoxy)propionyl)-3-(trifluoromethyl)-7,8,9,10-tetrahydro-5H-pyrazino[1,2-a]pyrido[3,2-e]pyrazin-6(6aH)-one] | – | – | – | < 100
8 | [2H]C([2H])([2H])N1C(=O)[C@@H]2CN(C(=O)CCOC[C@H](C)Nc3cn[nH]c(=O)c3C(F)(F)F)CCN2c2ncc(C(F)(F)F)cc21 [Compound 39, (s)-5-(methyl-D3)-8-(3-((S)-2-((6-oxo-5-(trifluoromethyl)-1,6-dihydropyridazin-4-yl)amino)propoxy)propionyl)-3-(trifluoromethyl)-7,8,9,10-tetrahydro-5H-pyrazino[1,2-a]pyrido[3,2-e]pyrazino-6(6aH)-one] | – | – | – | < 100
9 | C[C@@H](COCCC(=O)N1CCN2c3ccc(C(F)(F)F)cc3N(C)C(=O)[C@@H]2C1)Nc1cn[nH]c(=O)c1C(F)(F)F [Compound 49] | > 5000 | – | – | –
10 | C[C@@H](COCCC(=O)N1CCN2c3ncc(C(F)(F)F)cc3N(C)C(=O)[C@H]2C1)Nc1cn[nH]c(=O)c1C(F)(F)F [Compound 54, (R)-5-methyl-8-(3-((S)-2-((6-oxo-5-(trifluoromethyl)-1,6-dihydropyridazin-4-yl)amino)propoxy)propionyl)-3-(trifluoromethyl)-7,8,9, 10-tetrahydro-5H-pyrazino[1,2-a]pyrido[3,2-e]pyrazin-6(6aH)-one] | – | – | – | < 100
11 | CC(COCCC(=O)N1CCN2c3ncc(C(F)(F)F)cc3CN(C)C(=O)C2C1)Nc1cn[nH]c(=O)c1C(F)(F)F [Compound 57, (R)-6-methyl-9-(3-((S)-2-((6-oxo-5-(trifluoromethyl)-1,6-dihydropyridazin-4-yl)amino)propoxy)propionyl)-3-(trifluoromethyl)-5,6,8,9, 10, 11-hexahydropyrazino[1,2-a]pyrido[3,2-f][1, 4]diazepan-7(7aH)-one] | 500 to 5000 | – | – | –
12 | C[C@@H](COCCC(=O)N1CCN2c3ncc(C(F)(F)F)c(C(F)F)c3OCC[C@H]2C1)Nc1cn[nH]c(=O)c1C(F)(F)F [Compound 62, 5-(((S)-1-(3-((S)-4-(difluoromethyl)-3-(trifluoromethyl)-6,7,7a, 8, 10, 11-hexahydro-9H-pyrazino[1,2-d]pyrido[3,2-b][1, 4]oxazepane-9-yl)-3-oxypropoxy)prop-2-yl)amino)-4-(trifluoromethyl)pyridazin-3(2H)-one] | 100 to 500 | – | – | –
13 | CC(COCC(O)C(=O)N1CCN2c3ncc(C(F)(F)F)cc3CCC2C1)Nc1cn[nH]c(=O)c1C(F)(F)F (stereo not shown) [Compound 67] | < 100 | – | – | –
14 | CC(COCC(O)C(=O)N1CCN2c3ncc(C(F)(F)F)cc3CCC2C1)Nc1cn[nH]c(=O)c1C(F)(F)F (stereo not shown) [Compound 68] | – | – | < 100 | –
15 | C[C@@H](COCCC(=O)N1CCN2c3ncc(C(F)(F)F)cc3COC[C@H]2C1)Oc1cn[nH]c(=O)c1C(F)(F)F [Compound 69, 5-(((S)-1-(3-oxo-3-((R)-3-(trifluoromethyl)-7a, 8, 10, 11-tetrahydro-5H-pyrazino[2,1-c]pyrido[2,3-e][1, 4]oxazepane-9(7H)-yl)propoxy)prop-2-yl)oxy)-4-(trifluoromethyl)pyridazin-3(2H)-one] | < 100 | – | – | –
16 | C[C@@H](COCCC(=O)N1CCN2c3ncc(C(F)(F)F)cc3NC(C)(C)[C@H]2C1)Nc1cn[nH]c(=O)c1C(F)(F)F [Compound 76] | – | < 10 | – | –

More lines, main results first:

Row | IC50 (NCI-H1373 cells; [1]) [nM] | IC50 (PARP7) [nM] | IC50 (NCI-H1373 cells; [2]) [nM] | SMILES | IC50 (NCI-H1373 cells; Homo sapiens, NCI-H1373, 144 h) [nM]
17 | < 100 | < 10 | – | C[C@@H](COCCC(=O)N1CCN2c3ncc(C(F)(F)F)cc3CC[C@H]2C1)Nc1cn[nH]c(=O)c1C(F)(F)F (single isomer, unassigned) [Compound 45] | –
18 | 100 to 500 | < 10 | – | C[C@@H](COCCC(=O)N1CCN2c3ncc(C(F)(F)F)cc3CC[C@@H]2C1)Nc1cn[nH]c(=O)c1C(F)(F)F (single isomer, unassigned) [Compound 46] | –
19 | 500 to 5000 | < 10 | – | C[C@@H](COCCC(=O)N1CCN2c3ncc(C(F)(F)F)cc3C(F)(F)C[C@H]2C1)Nc1cn[nH]c(=O)c1C(F)(F)F (single isomer, unassigned) [Compound 63] | –
20 | 500 to 5000 | < 10 | – | C[C@@H](COCCC(=O)N1CCN2c3ncc(C(F)(F)F)cc3C(F)(F)C[C@@H]2C1)Nc1cn[nH]c(=O)c1C(F)(F)F (single isomer, unassigned) [Compound 64] | –
21 | > 5000 | < 10 | – | C[C@@H](COCCC(=O)N1CCN2c3ncc(C(F)(F)F)cc3NC(=O)CC2C1)Nc1cn[nH]c(=O)c1C(F)(F)F (single isomer, unassigned) [Compound 84] | –
22 | < 100 | < 10 | – | C[C@@H](COCCC(=O)N1CCN2c3ncc(C(F)(F)F)cc3OC[C@H]2C1)Nc1cn[nH]c(=O)c1C(F)(F)F [Compound 1, 5-(((S)-1-(3-oxo-3-((R)-3-(trifluoromethyl)-6a, 7,9,10-tetrahydropyrazino[1,2-d]pyrido[3,2-b][1,4]oxazin-8(6H)-yl)propoxy)prop-2-yl)amino)-4-(trifluoromethyl)pyridazin-3(2H)-one] | –
23 | < 100 | < 10 | – | C[C@@H](COCCC(=O)N1CCN2c3ncc(C(F)(F)F)cc3OC[C@@H]2C1)Nc1cn[nH]c(=O)c1C(F)(F)F [Compound 2, 5-(((S)-1-(3-oxo-3-((S)-3-(trifluoromethyl)-6a, 7,9,10-tetrahydropyrazino[1,2-d]pyrido[3,2-b][1,4]oxazin-8(6H)-yl)propoxy)prop-2-yl)amino)-4-(trifluoromethyl)pyridazin-3(2H)-one] | –
24 | > 5000 | < 10 | – | C[C@@H](COCCC(=O)N1CCN2c3ncc(C(F)(F)F)cc3C(=O)OC[C@H]2C1)Nc1cn[nH]c(=O)c1C(F)(F)F [Compound 3, (R)-9-(3-((S)-2-((6-oxo-5-(trifluoromethyl)-1,6-dihydropyridazin-4-yl)amino)propoxy)propionyl)-3-(trifluoromethyl)-7,7a, 8,9,10,11-hexahydro-5H-pyrazino[2,1-c]pyrido[2,3-e][1,4]oxazin-5-one] | –
25 | > 5000 | < 10 | – | C[C@@H](COCCC(=O)N1CCN2c3ncc(C(F)(F)F)cc3C(=O)OC[C@@H]2C1)Nc1cn[nH]c(=O)c1C(F)(F)F [Compound 4, (S)-9-(3-((S)-2-((6-oxo-5-(trifluoromethyl)-1,6-dihydropyridazin-4-yl)amino)propoxy)propionyl)-3-(trifluoromethyl)-7,7a, 8,9,10,11-hexahydro-5H-pyrazino[2,1-c]pyrido[2,3-e][1,4]oxazin-5-one] | –
